Assay [1] addresses T1, Solute carrier family 12 member 2 (Homo sapiens) (UniProt P55011).
T1 sequence (whole entry): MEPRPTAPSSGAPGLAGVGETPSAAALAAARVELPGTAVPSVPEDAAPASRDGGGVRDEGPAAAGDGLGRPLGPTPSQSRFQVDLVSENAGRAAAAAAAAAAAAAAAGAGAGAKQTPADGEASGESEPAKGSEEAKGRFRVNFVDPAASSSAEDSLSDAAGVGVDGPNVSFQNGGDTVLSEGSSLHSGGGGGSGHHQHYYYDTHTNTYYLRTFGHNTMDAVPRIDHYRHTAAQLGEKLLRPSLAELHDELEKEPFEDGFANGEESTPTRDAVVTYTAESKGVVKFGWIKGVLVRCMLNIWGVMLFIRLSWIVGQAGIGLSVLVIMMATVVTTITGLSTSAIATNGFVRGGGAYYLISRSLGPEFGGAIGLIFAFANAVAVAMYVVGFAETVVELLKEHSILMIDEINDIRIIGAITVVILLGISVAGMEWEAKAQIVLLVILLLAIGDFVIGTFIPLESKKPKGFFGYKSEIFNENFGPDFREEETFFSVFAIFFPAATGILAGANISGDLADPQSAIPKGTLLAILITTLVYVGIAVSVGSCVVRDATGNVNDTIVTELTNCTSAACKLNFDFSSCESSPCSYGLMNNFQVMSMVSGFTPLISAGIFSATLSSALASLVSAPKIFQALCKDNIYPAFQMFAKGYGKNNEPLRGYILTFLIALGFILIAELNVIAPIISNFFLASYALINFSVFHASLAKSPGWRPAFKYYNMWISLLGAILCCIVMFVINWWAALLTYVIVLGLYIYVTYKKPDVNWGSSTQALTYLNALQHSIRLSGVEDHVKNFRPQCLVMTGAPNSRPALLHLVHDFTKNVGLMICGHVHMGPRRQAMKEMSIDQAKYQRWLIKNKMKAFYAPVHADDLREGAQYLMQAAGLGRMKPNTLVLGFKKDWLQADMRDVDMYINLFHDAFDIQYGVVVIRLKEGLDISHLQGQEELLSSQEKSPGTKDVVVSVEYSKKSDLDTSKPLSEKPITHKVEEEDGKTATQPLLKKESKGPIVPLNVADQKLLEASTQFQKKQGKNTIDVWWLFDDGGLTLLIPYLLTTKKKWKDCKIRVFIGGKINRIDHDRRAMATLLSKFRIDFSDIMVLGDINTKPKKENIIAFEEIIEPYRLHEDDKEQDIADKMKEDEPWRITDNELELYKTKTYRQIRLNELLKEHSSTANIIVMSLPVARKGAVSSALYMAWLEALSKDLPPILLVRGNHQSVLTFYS
Nature of the assay: Inhibition of human NKCC1 expressed in COS7 co-expressing EYFP-HIF assessed as effect on I(-) gradient at 25 uM by YFP-based fluorescence quenching assay.

The test system of assay [2] is Mus musculus. The experiment in a line: Potentiation of 20 mg/kg, ip furosemide-induced acute diuretic action in CD1 mouse assessed as effect on urine pH at 10 mg/kg, ip relative to control. The assay is classed as functional, organism-based.
For assay [3], the target named is T2, Pendrin (Mus musculus) (UniProt Q9R155).
T2 sequence (whole entry): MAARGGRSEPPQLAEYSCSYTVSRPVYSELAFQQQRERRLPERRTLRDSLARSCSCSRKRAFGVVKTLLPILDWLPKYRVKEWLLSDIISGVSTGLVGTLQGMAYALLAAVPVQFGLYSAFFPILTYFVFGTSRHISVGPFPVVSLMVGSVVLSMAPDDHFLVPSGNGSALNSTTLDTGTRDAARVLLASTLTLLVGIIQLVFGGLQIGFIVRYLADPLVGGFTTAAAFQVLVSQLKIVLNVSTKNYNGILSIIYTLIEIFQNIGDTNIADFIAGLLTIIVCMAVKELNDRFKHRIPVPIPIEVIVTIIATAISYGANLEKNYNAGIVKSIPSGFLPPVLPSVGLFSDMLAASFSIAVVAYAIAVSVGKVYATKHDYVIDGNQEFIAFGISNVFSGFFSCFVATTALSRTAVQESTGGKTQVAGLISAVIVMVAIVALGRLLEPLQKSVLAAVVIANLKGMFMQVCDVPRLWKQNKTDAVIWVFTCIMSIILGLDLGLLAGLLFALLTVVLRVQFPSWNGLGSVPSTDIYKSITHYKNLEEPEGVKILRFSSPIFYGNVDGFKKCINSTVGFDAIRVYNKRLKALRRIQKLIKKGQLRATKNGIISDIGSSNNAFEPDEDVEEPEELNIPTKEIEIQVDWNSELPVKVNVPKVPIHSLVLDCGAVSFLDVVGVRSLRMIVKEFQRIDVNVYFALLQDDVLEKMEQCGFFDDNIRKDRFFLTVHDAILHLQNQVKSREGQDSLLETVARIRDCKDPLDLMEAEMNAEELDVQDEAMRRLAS
The experiment in a line: Inhibition of mouse pendrin expressed in FRT cells co-expressing YFP-HIF assessed as reduction in pendrin-mediated exchange of Cl(-) with NO3(-) by pH-sensitive fluorescent probe BCECF-AM based fluorescence assay relative to control. Format: cell-based.

For assay [4], the system named is Mus musculus. The experiment in a line: Potentiation of 5 to 50 mg/kg, ip furosemide-induced acute diuretic action in CD1 mouse assessed as increase in urine volume at 50 mg/kg, ip relative to control. The assay is classed as functional, organism-based.
The species entered for assay [5] is Homo sapiens. The experiment in a line: Inhibition of CaCC in human bronchial epithelial cells assessed as effect on short-circuit current at 25 uM pre-incubated for 30 mins.
The species entered for assay [6] is Homo sapiens. Nature of the assay: Effect on airway surface liquid depth in NHBE cells at 25 uM by rhodamine B-dextran fluorescence based confocal microscopy. The assay is classed as functional, cell-based.
For assay [7], the species on record is Homo sapiens. Nature of the assay: Effect on gluconate gradient-induced Cl(-) efflux in NHBE cells at 25 uM. Format: functional, cell-based.

Calls of active or inactive are those of the source. No cut-off for these calls is given here.

As to `Cc1n[nH]c(-c2cc(S(=O)(=O)NC3CCCc4ccccc43)c(C)s2)c1C` (configuration not stated), the inhibition result in assay [1] is “inactive”. The outcome in assay [2] was inactive. Further, the inhibition result in assay [3] was “Dose-dependent effect”. Moreover, the outcome in assay [4] was Active.

`Cn1nc(COc2cccc(F)c2)c2c1CCN(C(=O)Nc1ccc(Cl)cc1)C2`: the inhibition result in assay [5] is “inactive”. Further, the result in assay [6] and in assay [7] was inactive.

(Values after ChEMBL document CHEMBL4417636, “Small molecule inhibitors of pendrin ion exchange and pharmaceutical compositions” (2017).)
